Each compound was assayed against T1, Recombinant human renin (Homo sapiens, UniProt P00797) (assay: In vitro enzymatic activity assay of renin inhibitors (fluorescence, QXL520/HiLyteFluo488 peptide substrate)). Conditions: recombinant human renin 3 nM, 1 μM substrate, pre-incubated 10 minutes at 37° C., incubation one hour, pH 7.4, 5% DMSO; read-out: IC50 of Exemplified Compounds Against Renin.
T1 construct: isolate the active form (residues 67-406); made in house; host or cells: FreeStyle 293-F cells, transient expression of pcDNA3.1(+)/hREN
T1 sequence (P00797 67-406): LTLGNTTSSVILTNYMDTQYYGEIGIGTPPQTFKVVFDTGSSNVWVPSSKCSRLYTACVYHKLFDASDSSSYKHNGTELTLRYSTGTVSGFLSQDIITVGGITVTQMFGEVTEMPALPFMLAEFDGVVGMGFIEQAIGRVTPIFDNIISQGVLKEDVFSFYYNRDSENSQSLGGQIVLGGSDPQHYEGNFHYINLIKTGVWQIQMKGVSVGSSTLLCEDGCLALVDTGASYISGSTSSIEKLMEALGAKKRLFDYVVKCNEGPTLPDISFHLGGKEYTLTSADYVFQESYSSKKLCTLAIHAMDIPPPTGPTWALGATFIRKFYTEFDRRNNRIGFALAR
Assay type: biochemical

SMILES | IC50 [nM]
CC(C)CC(=O)NCCn1c(C(=O)N2CCNCC2)c(-c2ccccc2)n(C2CCCC[C@@H]2O)c1=O (stereo partly drawn) [Example 173, N-(2-(3-((2S)-2-Hydroxycyclohexyl)-2-oxo-4-phenyl-5-(piperazine-1-carbonyl)-2,3-dihydro-1H-imidazol-1-yl)ethyl)-3-methylbutanamide] | > 1000
COc1ccccc1-n1c(-c2ccccc2)c(C(=O)N2CCNCC2)n(CCNS(=O)(=O)c2ccccc2)c1=O [Example 158, N-(2-(3-(2-Methoxyphenyl)-2-oxo-4-phenyl-5-(piperazine-1-carbonyl)-2,3-dihydro-1H-imidazol-1-yl)ethyl)benzenesulfonamide] | > 1000
COc1cccc(Cn2c(C(=O)N3CCNCC3)c(-c3ccccc3)n(C3CCCN(C(C)=O)C3)c2=O)c1 (stereo not shown) [Example 92, 1-(1-Acetylpiperidin-3-yl)-3-(3-methoxybenzyl)-5-phenyl-4-(piperazine-1 carbonyl)-1H-imidazol-2(3H)-one] | > 1000
Cc1ccccc1-n1c(-c2ccccc2)c(C(=O)N2CCNCC2)n(CCCNS(=O)(=O)c2ccccc2F)c1=O [Example 229, 2-Fluoro-N-(3-(2-oxo-4-phenyl-5-(piperazine-1-carbonyl)-3-o-tolyl-2,3-dihydro-1H-imidazol-1-yl)propyl)benzenesulfonamide] | 500 to 1000
COCCCOc1cccc(-n2c(-c3ccccc3)c(C(=O)N3CCNCC3)n(Cc3cccc(Oc4ccccc4)c3)c2=O)c1 [Example 13, 1-(3-(3-methoxypropoxy)phenyl)-3-(3-phenoxybenzyl)-5-phenyl-4-(piperazine-1-carbonyl)-1H-imidazol-2(3H)-one] | > 1000
O=C(c1c(-c2ccccc2)n(-c2cccc(N3CCOCC3)c2)c(=O)n1Cc1ccc(F)c(F)c1)N1CCNCC1 [Example 190, 1-(3,4-Difluorobenzyl)-3-(3-morpholinophenyl)-4-phenyl-5-(piperazine-1-carbonyl)-1H-imidazol-2(3H)-one] | 500 to 1000
Cn1c(C(=O)N2CCNCC2)c(-c2ccccc2)n(C2CCCCC2)c1=O [Example 60, 1-Cyclohexyl-3-methyl-5-phenyl-4-(piperazine-1-carbonyl)-1H-imidazol-2(3H)-one] | > 1000
O=C(c1[nH]c(=O)n(-c2nc3ccccc3[nH]2)c1-c1ccccc1)N1CCNCC1 [Example 44, 1-(1H-benzo[d]imidazol-2-yl)-5-phenyl-4-(piperazine-1-carbonyl)-1H-imidazol-2(3H)-one] | > 1000
O=C(c1[nH]c(=O)n(-c2ccccc2)c1-c1cccc(F)c1)N1CCNCC1 [Example 21, 5-(3-Fluorophenyl)-1-phenyl-4-(piperazine-1-carbonyl)-1H-imidazol-2(3H)-one] | > 1000
COc1ccccc1-n1c(-c2ccccc2)c(C(=O)N2CCNCC2)n(CC2CCCCC2)c1=O [Example 160, 1-(Cyclohexylmethyl)-3-(2-methoxyphenyl)-4-phenyl-5-(piperazine-1-carbonyl)-1H-imidazol-2(3H)-one] | > 1000
CC(=O)N1CCCC(n2c(-c3ccccc3)c(C(=O)N3CCNC[C@H]3Cc3ccccc3)[nH]c2=O)C1 (stereo partly drawn) [Example 115, 1-(1-Acetylpiperidin-3-yl)-4-((R)-2-benzylpiperazine-1-carbonyl)-5-phenyl-1H-imidazol-2(3H)-one] | 500 to 1000
O=C(c1c(-c2ccccc2)n(C2CCCC[C@@H]2O)c(=O)n1CCCNS(=O)(=O)c1ccccc1)N1CCNCC1 (stereo partly drawn) [Example 171, N-(3-(3-((2S)-2-Hydroxycyclohexyl)-2-oxo-4-phenyl-5-(piperazine-1-carbonyl)-2,3-dihydro-1H-imidazol-1-yl)propyl)benzenesulfonamide] | > 1000
O=C(NCCn1c(C(=O)N2CCNCC2)c(-c2ccccc2)n(-c2cccc(N3CCOCC3)c2)c1=O)c1ccccc1 [Example 177, N-(2-(3-(3-Morpholinophenyl)-2-oxo-4-phenyl-5-(piperazine-1-carbonyl)-2,3-dihydro-1H-imidazol-1-yl)ethyl)benzamide] | 500 to 1000
O=C(NCCCn1c(C(=O)N2CCNCC2)c(-c2ccccc2)n(-c2cccc(N3CCOCC3)c2)c1=O)c1ccccc1 [Example 174] | > 1000
COC(=O)C(c1ccccc1)n1c(C(=O)N2CCNCC2)c(-c2ccccc2)n(C2CCCCC2)c1=O (stereo not shown) [Example 68, Methyl 2-(3-cyclohexyl-2-oxo-4-phenyl-5-(piperazine-1-carbonyl)-2,3-dihydro-1H-imidazol-1-yl)-2-phenylacetate] | > 1000
COc1ccc(S(=O)(=O)NCCCn2c(C(=O)N3CCNCC3)c(-c3ccccc3)n(-c3cccc(N4CCOCC4)c3)c2=O)cc1 [Example 199, 4-Methoxy-N-(3-(3-(3-morpholinophenyl)-2-oxo-4-phenyl-5-(piperazine-1-carbonyl)-2,3-dihydro-1H-imidazol-1-yl)propyl)benzenesulfonamide] | 500 to 1000

Results, then the compound that gave them:

IC50 [nM] | SMILES
100 to 500 | COc1cc(-c2cc(Cn3c(C(=O)N4CCNCC4)c(-c4ccccc4)n(C4CCCCC4)c3=O)cc(-c3ccnc(OC)c3)n2)ccn1 [Example 17E, 1-Cyclohexyl-3-((2,6-di(2-methoxyl-pyridine-4-yl)pyridin-4-yl)methyl)-5-phenyl-4-(piperazine-1-carbonyl)-1H-imidazol-2(3H)-one]
< 100 | Cc1ccccc1-n1c(-c2ccccc2)c(C(=O)N2CCNC[C@H]2Cc2ccccc2)[nH]c1=O [Example 116, (R)-4-(2-Benzylpiperazine-1-carbonyl)-5-phenyl-1-o-tolyl-1H-imidazol-2(3H)-one]
500 to 1000 | O=C(c1[nH]c(=O)n(C2CCCN(S(=O)(=O)c3ccccc3)C2)c1-c1ccccc1)N1CCNCC1 (stereo not shown) [Example 98, 5-Phenyl-1-(1-(phenylsulfonyl)piperidin-3-yl)-4-(piperazine-1-carbonyl)-1H-imidazol-2(3H)-one]
< 100 | O=C(c1[nH]c(=O)n(-c2ccccc2)c1-c1ccccc1)N1CCNC[C@H]1Cc1ccccc1 [Example 109, (R)-4-(2-Benzylpiperazine-1-carbonyl)-1,5-diphenyl-1H-imidazol-2(3H)-one]
500 to 1000 | Cc1ccccc1-n1c(-c2ccccc2)c(C(=O)N2CCNCC2)n(CCNC(=O)Nc2ccccc2Cl)c1=O [Example 212, 1-(2-Chlorophenyl)-3-(2-(2-oxo-4-phenyl-5-(piperazine-1-carbonyl)-3-o-tolyl-2,3-dihydro-1H-imidazol-1-yl)ethyl)urea]
100 to 500 | CCS(=O)(=O)Nc1ccccc1-n1c(-c2ccccc2)c(C(=O)N2CCNC[C@H]2Cc2ccccc2)[nH]c1=O [Example 127, (R)—N-(2-(4-(2-Benzylpiperazine-1-carbonyl)-2-oxo-5-phenyl-2,3-dihydro-1H-imidazol-1-yl)phenyl)ethanesulfonamide]
< 100 | COCCCOc1cccc(-n2c(-c3ccccc3)c(C(=O)N3CCNCC3)n(Cc3cccc(Oc4ccccc4)c3)c2=O)c1 [Example 75, 1-(3-(3-Methoxypropoxy)phenyl)-3-(3-phenoxybenzyl)-5-phenyl-4-(piperazine-1-carbonyl)-1H-imidazol-2(3H)-one]
100 to 500 | O=C(c1c(-c2ccccc2)n(C2CCCCC2)c(=O)n1Cc1cc(-c2cn[nH]c2)nc(-c2cn[nH]c2)c1)N1CCNCC1 [Example 91, 1-Cyclohexyl-3-((2,6-di(1H-pyrazol-4-yl)pyridin-4-yl)methyl)-5-phenyl-4-(piperazine-1-carbonyl)-1H-imidazol-2(3H)-one]
< 100 | Cc1ccccc1-n1c(-c2ccccc2)c(C(=O)N2CCNCC2)n(CCCNS(=O)(=O)c2ccccc2C)c1=O [Example 220, 2-Methyl-N-(3-(2-oxo-4-phenyl-5-(piperazine-1-carbonyl)-3-o-tolyl-2,3-dihydro-1H-imidazol-1-yl)propyl)benzenesulfonamide]
100 to 500 | COc1ccccc1-n1c(-c2ccccc2)c(C(=O)N2CCNCC2)n(CCCNS(=O)(=O)c2ccccc2)c1=O [Example 161, N-(3-(3-(2-Methoxyphenyl)-2-oxo-4-phenyl-5-(piperazine-1-carbonyl)-2,3-dihydro-1H-imidazol-1-yl)propyl)benzenesulfonamide]
100 to 500 | Cc1ccccc1-n1c(-c2ccccc2)c(C(=O)N2CCNCC2)n(CCCNS(=O)(=O)c2ccccc2)c1=O [Example 162, N-(3-(2-oxo-4-Phenyl-5-(piperazine-1-carbonyl)-3-o-tolyl-2,3-dihydro-1H-imidazol-1-yl)propyl)benzenesulfonamide]
< 100 | CS(=O)(=O)c1cccc(-n2c(-c3ccccc3)c(C(=O)N3CCNC[C@H]3Cc3ccccc3)[nH]c2=O)c1 [Example 114, (R)-4-(2-Benzylpiperazine-1-carbonyl)-1-(3-(methylsulfonyl)phenyl)-5-phenyl-1H-imidazol-2(3H)-one]
< 100 | CCCCN1CCCc2ccc(-n3c(-c4ccccc4)c(C(=O)N4CCNC[C@H]4Cc4ccccc4)[nH]c3=O)cc21 [Example 131]
< 100 | O=C(c1c(-c2ccccc2)n(-c2cccc(N3CCOCC3)c2)c(=O)n1CCCNS(=O)(=O)c1ccccc1Cl)N1CCNCC1 [Example 194, 2-Chloro-N-(3-(3-(3-morpholinophenyl)-2-oxo-4-phenyl-5-(piperazine-1-carbonyl)-2,3-dihydro-1H-imidazol-1-yl)propyl)benzenesulfonamide]
100 to 500 | COCCCOc1cccc(-n2c(-c3ccccc3)c(C(=O)N3CCNCC3)n(CCNC(=O)c3ccccc3)c2=O)c1 [Example 182, N-(2-(3-(3-(3-Methoxypropoxy)phenyl)-2-oxo-4-phenyl-5-(piperazine-1-carbonyl)-2,3-dihydro-1H-imidazol-1-yl)ethyl)benzamide]
